Measurements from US7338932B2, “Methods of modulating functions of polypeptide GalNAc-transferases and of screening test substances to find agents herefor, pharmaceutical compositions comprising such agents and the use of such agents for preparing medicaments” (Glycozym APS, priority 2000, dated 2008).
Read-outs that look alike come from different tables or passages of the source. Ends that are not written are not given here.

Tests used:
[1] = target: T1, GalNAc-T2 lectin domain (T2ld) (Homo sapiens, UniProt Q10471); assay: Direct binding ELISA to GalNAc-MUC1 glycopeptide, competitive inhibition, T2ld
T1 construct: made in house; host or cells: High Five insect cells (baculovirus, pAcGP67-A)
T1 sequence (Q10471 408-571): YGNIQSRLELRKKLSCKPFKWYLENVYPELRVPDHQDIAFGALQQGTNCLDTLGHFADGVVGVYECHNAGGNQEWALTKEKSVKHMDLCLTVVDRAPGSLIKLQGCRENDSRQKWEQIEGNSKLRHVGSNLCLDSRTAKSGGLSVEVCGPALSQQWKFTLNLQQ
Protocol: (§1) Protein biotinylation was made as previously reported^62. The pH of 1 ml purified protein (0.3 mg/ml) in PBS was adjusted to pH 9 with 1 M NaOH and 40 μl N-hydroxy-succinimidobiotin (Sigma) dissolved in DMF (10 mg/ml) was added. The solution was mixed end-over-end for 2 hours at room temperature, and dialyzed three times against PBS and an equal volume of glycerol was added. The biotinylated proteins were stored at −20° C. in 50% glycerol until use.
(§2) Direct binding ELISA assay was developed as follows: Polystyrene microtiter plates (Maxisorb, Nunc, Denmark) were coated with peptides or enzymatically glycosylated glycopeptides in PBS overnight at 4° C. Plates were washed and blocked with 0.1% Tween20 and 0.2% BSA in PBS for 1 h at room temperature, followed by incubation with biotinylated proteins in PBS with 0.05% Tween20 for 2 h at room temperature. After four washes with PBS, plates were incubated with 1:2,000 dilution streptavidin-HRP (Sigma) in PBS for 30 min at room temperature and washed four times with PBS. Development was performed with 0.5 mg/ml o-phenylenediamine and 0.02% H2O2 at room temperature for 15 min, and reaction stopped by adding 100 μl/well of 0.5 N H2SO4. Competitive inhibition assays were done at end-point titers of GalNAc-transferase proteins with one hour preincubations with inhibitor.
(§3) In binding studies using lectins without biotinylation antibodies to the HIS-tag and the T7-tag, or in some experiments antibodies raised to GalNAc-T2 and -T4 enzymes were used to detect binding.

[2] = target: T2, secreted soluble GalNAc-T2 (sT2) (Homo sapiens, UniProt Q10471); assay: Direct binding ELISA to GalNAc-MUC1 glycopeptide, competitive inhibition, sT2
T2 construct: HIS-tagged secreted human GalNAc-T2 and -T4 were prepared from pAC-GP67-T2-sol and pAC-GP67-T4-sol cDNA; 6xHis (N); thrombin cleavage site (N); T7 tag (N); made in house; host or cells: High Five insect cells (baculovirus)
Protocol: as §1, §2, §3

[3] = target: T3, secreted soluble GalNAc-T4 (sT4) (Homo sapiens, UniProt Q8N4A0); assay: Direct binding ELISA to GalNAc-MUC1 glycopeptide, competitive inhibition, sT4; details: binding to GalNAc-MUC1 glycopeptide
T3 construct: using the GalNAc-T4-sol construct that encodes residues 32-578 inserted into pT7T3U19; 6xHis (N); thrombin cleavage site (N); T7 tag (N); made in house; host or cells: High Five insect cells (baculovirus)
Protocol: as §1, §2, §3

[4] = target: T4, GalNAc-T4 lectin domain (T4ld) (Homo sapiens, UniProt Q8N4A0); assay: Direct binding ELISA to GalNAc-MUC1 glycopeptide, competitive inhibition, T4ld
T4 construct: made in house; host or cells: High Five insect cells (baculovirus, pAcGP67-A)
Protocol: as §1, §2, §3

GalNAc-T3 = target: T5, GalNAc-T3 (Homo sapiens, UniProt Q14435); assay: GalNAc-T3 transferase activities with UDP-GalNAc or UDP-Gal donor (EA2 acceptor, peptide panel); format: biochemical; details: peptide as acceptor substrate
T5 construct: Soluble, secreted expression constructs of human GalNAc-transferases GalNAc-T1, -T2, -T3, -T4, -T6, -T7, and -T11; made in house; host or cells: insect cells (baculovirus)
T5 sequence (Q14435 38-633 limits assumed): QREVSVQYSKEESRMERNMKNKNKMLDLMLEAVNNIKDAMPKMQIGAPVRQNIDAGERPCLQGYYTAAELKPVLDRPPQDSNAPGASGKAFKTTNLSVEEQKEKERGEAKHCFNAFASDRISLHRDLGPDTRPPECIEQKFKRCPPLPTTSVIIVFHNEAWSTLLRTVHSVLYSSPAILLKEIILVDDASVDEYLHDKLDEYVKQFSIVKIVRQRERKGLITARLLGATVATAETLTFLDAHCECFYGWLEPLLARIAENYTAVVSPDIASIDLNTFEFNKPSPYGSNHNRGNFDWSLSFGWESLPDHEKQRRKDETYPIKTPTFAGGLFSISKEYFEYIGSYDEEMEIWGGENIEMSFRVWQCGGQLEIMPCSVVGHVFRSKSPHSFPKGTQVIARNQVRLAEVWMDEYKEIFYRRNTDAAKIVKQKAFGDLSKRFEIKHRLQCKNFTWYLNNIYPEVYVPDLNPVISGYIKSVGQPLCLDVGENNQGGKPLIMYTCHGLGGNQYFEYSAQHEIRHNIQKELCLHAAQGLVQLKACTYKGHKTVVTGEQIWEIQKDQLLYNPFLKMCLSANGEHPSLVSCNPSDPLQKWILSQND
Protocol: (§4) Standard reaction mixtures (50 μl final volume) contained 25 mM cocadylate (pH 7.4), 10 mM MnCl2, 0.25% Triton X-100, 200 μM UDP-[^14C]-GalNAc (2,000 cpm/nmol) (Amersham), 200-500 μM acceptor peptides. Products were quantified by scintillation counting after chromatography on Dowex-1, octadecyl silica cartridges (Bakerbond), or HPLC (PC3.2/3 or mRPC C2/C18 SC2.1/10 Pharmacia, Smart System). […] Glycopeptides were purified on Supelclean LC-18 columns (1 ml, Supelco), and the number of GalNAc residues incorporated evaluated by MALDI-TOF mass spectrometry. The enzyme sources used were semipurified as previously described by successive sequential ion-exchange chromatographies on Amberlite (IRA95, Sigma) or DEAE Sephacel (Pharmacia), S-Sepharose Fast Flow (Pharmacia), and Mini-S™ (PC 3.2/3, Pharmacia) using the Smart System (Pharmacia) (28). Secreted GalNAc-T4 was obtained from a stably transfected CHO line (CHO/GalNA-T4/21A) (8) grown in roller bottles in HAMS F12 supplemented with 10% Fetal Bovine Serum. The experiments illustrated in FIG. 1 was performed with recombinant secreted GalNAc-T4 obtained from a stably transfected CHO line (8). Experiments illustrated in FIGS. 2 and 3 were performed with secreted GalNAc-T4 expressed in High Five cells grown in serum-free medium (8). Structural analysis of glycopeptides were performed by a combination of PFPA (pentafluoropropionic acid) hydrolysis and MALDI-TOF mass spectrometry as previously described (40). Secreted GalNAc-T7 was obtained from infected High Five™ cells grown in serum-free medium (Invitrogen) in upright roller bottles shaken 140 rpm in waterbaths at 27° C. GalNAc-T7 was not purified by Mini-S as the yields from cationic chromatography were low due to its low pI (6.4).
(§5) Galactosyl transferring activities of GalNAc-T1, -T2, and -T3, were assayed with a panel of acceptor peptides in standard reaction mixtures containing 100 μM UDP-Gal instead of UDP-GalNAc. […] Further, analysis was performed with 10 mM α-D-GalNAc-1-benzyl, αGlcNAc-benzyl, and fully occupied GalNAc-glycopeptide, GalNAC6TAP25, at 5 mM.

GalNAc-T2 = target: T6, GalNAc-T2 (Homo sapiens, UniProt Q10471); assay: GalNAc-T2 transferase activities with UDP-GalNAc or UDP-Gal donor (Muc2 acceptor, peptide panel); format: biochemical; details: peptide as acceptor substrate
T6 construct: Soluble, secreted expression constructs of human GalNAc-transferases GalNAc-T1, -T2, -T3, -T4, -T6, -T7, and -T11; made in house; host or cells: insect cells (baculovirus)
Protocol: as §4, §5

GalNAc-T4 = target: T7, GalNAc-T4 (Homo sapiens, UniProt Q8N4A0); assay: Inhibition of glycosylation dependent (GalNAc-glycopeptide) activity of GalNAc-T4, MALDI-TOF time-course; format: biochemical; details: […] free sugar
T7 construct: using the GalNAc-T4-sol construct that encodes residues 32-578 inserted into pT7T3U19; made in house; host or cells: High Five insect cells (baculovirus, pAcGP67)
Protocol: MALDI-TOF time-course in terminal reactions were performed in reactions of 25 μl containing 2.5 nmol acceptor (glyco)peptide, 40 nmol UDP-GalNAc, and 0.4 μg GalNAc-T4. Sampling of reactions (1 μl) were purified by nano-scale reversed-phase chromatography (Poros R3, PerSeptive Biosystem) and applied directly to the probe with matrix (41). The amount of GalNAc-transferase added was adjusted so that the reaction with the appropriate peptide was near completion in six hours. Reactions were incubated at 37° C. in a shaker bath. At times 0, 2 hours, and 16 hours a 1 μl aliquot was taken and purified. Mass spectra were acquired on either Voyager-DE mass spectrometer equipped with delayed extraction (Perseptive Biosystem Inc.). The matrix used was 2,5-dihydroxybenzoic acid (10 mg/ml, Hewlett-Packard) dissolved in a 2:1 mixture of 0.1% trifluoroacetic acid in 30% aqueous acetonitrile (Rathburn Ltd.).
Quantification of purified proteins was done by Coomassie stained SDS-PAGE and titration of immunoreactivity with the monoclonal antibody, UH6(4G2) (8). […] Wild-type GalNAc-T4 and mutant GalNAc-T4, GalNAc-T4^459H, were analysed with unglycosylated peptides (represented by PSGL-1) or GalNAc glycosylated glycopeptides (represented by GalNAc3TAP25V21) in reactions of 25 μl containing 2.5 nmol acceptor (glyco)peptide, 40 nmol UDP-GalNAc, and 0.4 μg GalNAc-T4. Time-course assays were motioned by MALDI-TOF. Sampling of reactions (1 μl) were purified by nano-scale reversed-phase chromatography (Poros R3, PerSeptive Biosystem) and applied directly to the probe with matrix. Evaluation of inhibition of the glycopeptide specificity of wild-type GalNAc-T4 with free sugars was performed to establish if the lectin domain recognized carbohydrate. […] Further, analysis was performed with 10 mM α-D-GalNAc-1-benzyl, αGlcNAc-benzyl, and fully occupied GalNAc-glycopeptide, GalNAc6TAP25, at 5 mM.

[5] = target: Helix Pomatia lectin (HPA) (Helix pomatia, UniProt Q2F1K8); assay: Direct binding ELISA, competitive inhibition, Helix Pomatia lectin control; details: read-out: Concentration required for 50% inhibition (IC50), HPA; control plant lectin
Excerpt: Glycopeptides were purified by C-18 reverse phase HPLC. Peptides were custom synthesized by Neosystems (Strasbourg). Biotinylated Helix Pomatia lectin (HPA) was from KemEnTec (Denmark). Anti-MUC1 HMFG2 monoclonal antibody was a generous gift from Joyce Taylor-Papadimitriou. Anti-MUC1 SE5 monoclonal antibody was developed by immunizing Balb/c mice with 60-mer MUC1 tandem repeat peptide glycosylated with 5 moles GalNAc per repeat. Monoclonal antibodies to the lectin domains of human GalNAc-T2 and -T4 were developed as previously described^8, 63.
as §2
Inhibition experiments were used to further define the binding specificity of GalNAc-T2 and -T4 secreted soluble enzymes as well as lectin domains compared to Helix Pomatia lectin (Table VII).

[6] = read-out: Concentration required for 50% inhibition (IC50), T2ld
[7] = read-out: Concentration required for 50% inhibition (IC50), sT2
[8] = read-out: Concentration required for 50% inhibition (IC50), sT4
[9] = read-out: Concentration required for 50% inhibition (IC50), T4ld

IC50 [1, 6] [mM] | IC50 [3, 8] [mM] | IC50 [5] [mM] | Compound | IC50 [2, 7] [mM] | also measured
– | 0.8 | > 20 | CC(=O)N[C@H]1[C@H](Oc2ccc([N+](=O)[O-])cc2)O[C@H](CO)[C@H](O)[C@@H]1O [pNPβGalNAc] | – | –
> 100 | > 100 | > 100 | O=c1ccn([C@@H]2O[C@H](COP(=O)(O)OP(=O)(O)O)[C@@H](O)[C@H]2O)c(=O)[nH]1 [UDP] | > 100 | IC50 [4, 9]: > 100 mM
15 | – | 1 | CC(=O)N[C@H]1[C@@H](Oc2ccccc2)O[C@H](CO)[C@H](O)[C@@H]1O [PhlαGalNAc] | – | –

Continued, compound first:

Compound | IC50 [1, 6] [mM] | IC50 [3, 8] [mM] | IC50 [5] [mM] | IC50 [2, 7] [mM] | also measured
COC1O[C@H](CO)[C@H](O)[C@H](O)[C@H]1O (single isomer, unassigned) [MeβGal] | – | – | – | – | IC50 [1]: > 100 mM; IC50 [2]: > 100 mM; IC50 [3]: 40 mM; IC50 [4]: > 100 mM
Muc7: acceptor peptide Ac-CPPTPSATTPAPPSSSAPPETTAA derived from human salivary gland mucin MUC7 | – | – | – | – | GalNAc-T3 activity with UDP-Gal by acceptor peptide (GalNAc-T3): 0.1 nmol/min/mL; GalNAc-T2 activity with UDP-Gal by acceptor peptide (GalNAc-T2): 13 nmol/min/mL
OC[C@H]1OC(O)[C@H](O)[C@@H](O)[C@H]1O (stereo partly shown) [Gal] | – | – | – | – | Inhibition of glycosylation dependent specificity of GalNAc-T4 (GalNAc-T4): failed to show significant inhibition
uridine diphospho-N-acetylgalactosamine [UDPαGalNAc] | > 100 | 30 | – | 65 | –
CC(=O)N[C@H]1[C@H](OCc2ccccc2)O[C@H](CO)[C@@H](O)[C@@H]1O [BzlβGlcNAc] | – | – | > 20 | – | IC50 [1]: > 100 mM; IC50 [2]: > 100 mM; IC50 [3]: > 100 mM; IC50 [4]: > 100 mM
C[C@@H]1OC(O)[C@@H](O)[C@H](O)[C@@H]1O (stereo partly shown) [Fuc] | – | – | – | – | Inhibition of glycosylation dependent specificity of GalNAc-T4 (GalNAc-T4): failed to show significant inhibition
CO[C@H]1O[C@H](CO)[C@H](O)[C@H](O)[C@H]1O [MeαGal] | > 100 | 50 | > 100 | > 100 | IC50 [4, 9]: > 100 mM
CC(=O)N[C@H]1[C@H](Oc2ccccc2[N+](=O)[O-])O[C@H](CO)[C@H](O)[C@@H]1O [oNPβGalNAc] | – | – | > 20 | – | IC50 [1]: > 12 mM; IC50 [3]: 1 mM; IC50 [4]: 8 mM
CC(=O)N[C@H]1C(O)O[C@H](CO)[C@@H](O)[C@@H]1O (stereo partly shown) [GlcNAc] | > 100 | > 100 | 8 | > 100 | IC50 [4, 9]: > 100 mM; Inhibition of glycosylation dependent specificity of GalNAc-T4 (GalNAc-T4): failed to show significant inhibition
